Pest or weed control and inhibition of growth data for 14 compounds are collected here from US11155517B2, “4-substituted phenylamine derivatives and their use to protect crops by fighting undesired phytopathogenic micoorganisms” (PI INDUSTRIES LTD., priority 2016, dated 2021).

One assay deals with Botrytis cinera. Description: Greenhouse Botrytis cinera test in tomato, preventive. It is filed as in vivo. The settings on record: 24 h, plants sprayed one day before inoculation, read-out: Efficacy (% control), disease severity vs untreated check.
A further assay has as its system Rhizoctonia solani. Description: Rhizoctonia solani (rice sheath blight/potato black scurf) in vitro test, radial growth on Potato Dextrose Agar. It is filed as cell-based. The settings on record: 168 h, 300 ppm, seven days, 25° C., read-out: % control compared to the untreated check (radial growth).
Another assay concerns Colletotrichum capsici. Description: Colletotrichum capsici (anthracnose) in vitro test, radial growth on Potato Dextrose Agar. It is filed as cell-based. To be noted: Colletotrichum truncatum, 168 h; 300 ppm; seven days, 25° C.; read-out: % control compared to the untreated check (radial growth).
The subject of assay [1] is Pyricularia oryzae. The assay can be described thus: microbe, parasite or virus in culture. It is filed as cell-based. To be noted: 168 h, read-out: % control compared to the untreated check (radial growth).
Assay [2] concerns Pyricularia oryzae. The assay can be described thus: whole plant or invertebrate. It is filed as in vivo. To be noted: 24 h, read-out: Efficacy (% control), disease severity vs untreated check.
The test system of another assay is Botrytis cinerea. Description: Botrytis cinerea (gray mold) in vitro test, radial growth on Potato Dextrose Agar. It is filed as cell-based. To be noted: 168 h, 300 ppm, seven days, 22° C., read-out: % (control) compared to the untreated check (radial growth).
For assay [3], the system named is Alternaria solani. The assay can be described thus: Alternaria solani (early blight of tomato/potato) in vitro test, radial growth on Potato Dextrose Agar. It is filed as cell-based. To be noted: 168 h, 300 ppm, seven days, 25° C., read-out: % control compared to the untreated check (radial growth).
Assay [4] has as its system Alternaria solani. The assay can be described thus: Greenhouse Alternaria solani test in tomato, preventive. It is filed as in vivo. The settings on record: 24 h, tomato plants sprayed one day before inoculation, read-out: Efficacy (% control), disease severity vs untreated check. The method, then:
Compounds were dissolved in 2% DMSO/Acetone & then mixed with water to calibrated spray volume of 50 ml. This 50 ml spray solution was poured into the spray bottles for further applications. To test the preventive activity of compounds, healthy young Tomato plants raised in the greenhouse were sprayed with active compound preparation at the stated application rates inside the spray cabinets using hallowcone nozzles. One day after treatment, the plants were inoculated with spore suspension (2% Malt) containing 0.24×10^6 Alternaria solani inoculum. The inoculated plants were then kept in greenhouse chamber at 22-24° C. temperature and 90-95% relative humidity for disease expression. […] Efficacy (% control) of the compounds was calculated by comparing the disease rating in the treatment with untreated control. The sprayed plants were also assessed for compound's phytotoxic effects by recording symptoms like necrosis, chlorosis and stunting.

Assay [5] relates to Fusarium culmorum. The assay can be described thus: Greenhouse Fusarium culmorum test in wheat, preventive. It is filed as in vivo. To be noted: 24 h, read-out: Efficacy (% control), disease severity vs untreated check. The method in brief: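 Young greenhouse wheat sprayed preventively at stated rates (compounds in 2% DMSO/acetone, diluted in water), inoculated one day later with 2×10^6 Fusarium culmorum spores in 2% malt, held at 24 °C, 80-90% RH. Disease severity (0-100%) rated 3, 7, 10 and 15 days after application; % control versus untreated, phytotoxicity also recorded.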

The next assay relates to Septoria lycopersici. The assay can be described thus: Septoria lycopersici (leaf spot of tomato) in vitro test, radial growth on Potato Dextrose Agar. To be noted: 168 h, seven days, 25° C., read-out: % control compared to the untreated check (radial growth). It is filed as cell-based.
Assay [6] deals with Fusarium culmorum. Description: Fusarium culmorum (foot rot of cereals) in vitro test, radial growth on Potato Dextrose Agar. It is filed as cell-based. To be noted: Fusarium culmorum, 168 h, read-out: % control compared to the untreated check (radial growth).

The structures appear in SMILES notation. Some results are limits rather than exact numbers.

With `CCN(C)C=Nc1cc(C)c(Cc2ccccc2C(F)(F)F)cc1Cl` [Compound 103, N′-(2-chloro-5-methyl-4-(2-(trifluoromethyl)benzyl)phenyl)-N-ethyl-N-methylformimidamide], the pest or weed control at 500 ppm with Botrytis cinera and in the assay on Pyricularia oryzae [2] was 70 to 100% in each case. For the same compound, the inhibition of growth at 300 ppm with Rhizoctonia solani is over 80%; in the assay on Colletotrichum capsici, over 80%; in the assay with Pyricularia oryzae [1], over 75%; with Botrytis cinerea, over 80%; with Alternaria solani [3], over 75%.
For `CCN(C)C=Nc1cc(C)c(Cc2ccccc2C)cc1C` [Compound 32, N′-(2,5-dimethyl-4-(2-methylbenzyl)phenyl)-N-ethyl-N-methylformimidamide], the pest or weed control at 500 ppm with Alternaria solani [4], with Botrytis cinera and in the assay with Fusarium culmorum [5] was 70 to 100% in each case. Further, the inhibition of growth at 300 ppm in the assay on Septoria lycopersici is over 70%; with Rhizoctonia solani, over 80%; in the assay with Colletotrichum capsici, over 80%; with Pyricularia oryzae [1], over 75%; in the assay on Botrytis cinerea it was over 80%; in the assay with Fusarium culmorum [6], 75%. The inhibition of growth at 300 ppm in the assay on Alternaria solani [3] is over 75%.
On to `CCN(C)C=Nc1cc(Cl)c(Cc2cccc(F)c2)cc1Cl` [Compound 148, N′-(2,5-dichloro-4-(3-fluorobenzyl)phenyl)-N-ethyl-N-methylformimidamide], for which the inhibition of growth at 300 ppm with Pyricularia oryzae [1] and with Alternaria solani [3] was over 75% throughout. The pest or weed control at 500 ppm in the assay on Pyricularia oryzae [2] was 70 to 100%.
With `CCN(C)C=Nc1cc(C)c(Cc2ccc(F)cc2Cl)cc1C` [Compound 110, N′-(4-(2-chloro-4-fluorobenzyl)-2,5-dimethylphenyl)-N-ethyl-N-methylformimidamide], the inhibition of growth at 300 ppm in the assay with Septoria lycopersici is over 70%; in the assay with Rhizoctonia solani it was over 80%; with Colletotrichum capsici, over 80%; with Pyricularia oryzae [1], over 75%; in the assay with Botrytis cinerea it was over 80%; in the assay on Fusarium culmorum [6], 75%. Besides, in the assay with Alternaria solani [3], the inhibition of growth at 300 ppm was over 75%. Besides, in the assay with Pyricularia oryzae [2], the pest or weed control at 500 ppm lay in the range of 70 to 100%.
With `CCN(C)C=Nc1cc(C)c(Cc2cc(F)cc(Cl)c2)cc1C` [Compound 135, N′-(4-(3-chloro-5-fluorobenzyl)-2,5-dimethylphenyl)-N-ethyl-N-methylformimidamide], the inhibition of growth at 300 ppm in the assay with Septoria lycopersici was over 70%; in the assay on Rhizoctonia solani, over 80%; with Colletotrichum capsici, over 80%; in the assay on Pyricularia oryzae [1], over 75%; in the assay on Botrytis cinerea, over 80%; in the assay on Alternaria solani [3], over 75%. Besides, in the assay with Pyricularia oryzae [2], the pest or weed control at 500 ppm is 70 to 100%.
Consider `CCN(C)C=Nc1cc(C)c(Cc2cccc(OC(F)(F)F)c2)cc1C` [Compound 51, N′-(2,5-dimethyl-4-(3-(trifluoromethoxy)benzyl)phenyl)-N-ethyl-N-methylformimidamide], for which the inhibition of growth at 300 ppm in the assay on Septoria lycopersici was over 70%; with Rhizoctonia solani it was over 80%; in the assay on Colletotrichum capsici, over 80%; with Pyricularia oryzae [1] it was over 75%; with Botrytis cinerea it was over 80%; in the assay with Fusarium culmorum [6] it was 75%. For the same compound, the inhibition of growth at 300 ppm in the assay on Alternaria solani [3] was over 75%. Besides, the pest or weed control at 500 ppm in the assay with Pyricularia oryzae [2] fell in the range of 70 to 100%.
Consider `CCN(C)C=Nc1cc(C)c(Cc2ccc(Cl)c(C)c2)cc1Cl` [Compound 120, N′-(2-chloro-4-(4-chloro-3-methylbenzyl)-5-methylphenyl)-N-ethyl-N-methylformimidamide], for which the inhibition of growth at 300 ppm in the assay with Rhizoctonia solani was over 80%; in the assay on Colletotrichum capsici, over 80%; with Pyricularia oryzae [1], over 75%; with Botrytis cinerea, over 80%; with Fusarium culmorum [6], 75%; with Alternaria solani [3] it was over 75%. For the same compound, in the assay with Pyricularia oryzae [2], the pest or weed control at 500 ppm was in the range of 70 to 100%.
With `CCN(C)C=Nc1cc(C)c(Cc2ccccc2C(F)(F)F)cc1C` [Compound 93, N′-(2,5-dimethyl-4-(2-(trifluoromethyl)benzyl)phenyl)-N-ethyl-N-methylformimidamide], the inhibition of growth at 300 ppm with Septoria lycopersici is over 70%; in the assay with Rhizoctonia solani, over 80%; in the assay on Colletotrichum capsici, over 80%; with Pyricularia oryzae [1] it was over 75%; with Botrytis cinerea, over 80%; in the assay on Fusarium culmorum [6] it was 75%. Further, the inhibition of growth at 300 ppm in the assay on Alternaria solani [3] was over 75%. The pest or weed control at 500 ppm in the assay with Pyricularia oryzae [2] is 70 to 100%.
`CCN(C)C=Nc1cc(C)c(Cc2cc(C)ccc2C)cc1C` [Compound 26, N′-(4-(2,5-dimethylbenzyl)-2,5-dimethylphenyl)-N-ethyl-N-methylformimidamide]: the inhibition of growth at 300 ppm was over 70% in the assay on Septoria lycopersici; over 80% in the assay with Rhizoctonia solani; over 80% with Colletotrichum capsici; over 75% in the assay on Pyricularia oryzae [1]; over 80% in the assay with Botrytis cinerea; 75% in the assay with Fusarium culmorum [6]. In the assay on Alternaria solani [3], the inhibition of growth at 300 ppm was over 75%. Further, the pest or weed control at 500 ppm with Pyricularia oryzae [2] is 70 to 100%.
On to `CCN(C)C=Nc1cc(C)c(Cc2cccc(Cl)c2Cl)cc1C` [Compound 133, N′-(4-(2,3-dichlorobenzyl)-2,5-dimethylphenyl)-N-ethyl-N-methylformimidamide], for which the pest or weed control at 500 ppm with Botrytis cinera and with Pyricularia oryzae [2] was 70 to 100% each time. In addition, the inhibition of growth at 300 ppm was over 70% in the assay with Septoria lycopersici; over 80% in the assay with Rhizoctonia solani; over 80% in the assay on Colletotrichum capsici; over 75% with Pyricularia oryzae [1]; over 80% in the assay on Botrytis cinerea; over 75% with Alternaria solani [3].
`Cc1cc(N=CN2CCOCC2)c(C)cc1Cc1ccccc1Cl` [Compound 63, N-(4-(2-chlorobenzyl)-2,5-dimethylphenyl)-1-morpholinomethanimine]: the inhibition of growth at 300 ppm with Septoria lycopersici was over 70%; in the assay on Rhizoctonia solani it was over 80%; in the assay with Colletotrichum capsici, over 80%; in the assay on Pyricularia oryzae [1], over 75%; with Botrytis cinerea, over 80%; in the assay with Fusarium culmorum [6], 75%. Moreover, in the assay with Alternaria solani [3], the inhibition of growth at 300 ppm was over 75%. Further, the pest or weed control at 500 ppm in the assay with Pyricularia oryzae [2] lay within 70 to 100%.
`CCN(C)C=Nc1cc(C)c(Cc2cccc(C)c2C)cc1C` [Compound 112, N′-(4-(2,3-dimethylbenzyl)-2,5-dimethylphenyl)-N-ethyl-N-methylformimidamide]: the inhibition of growth at 300 ppm with Septoria lycopersici is over 70%; in the assay on Rhizoctonia solani, over 80%; in the assay with Colletotrichum capsici it was over 80%; in the assay on Pyricularia oryzae [1], over 75%; in the assay with Fusarium culmorum [6] it was 75%; with Alternaria solani [3], over 75%. Moreover, the pest or weed control at 500 ppm with Pyricularia oryzae [2] is 70 to 100%.
Consider `CCN(C)C=Nc1cc(C)c(Cc2ccccc2SC)cc1C` [Compound 23, N′-(2,5-dimethyl-4-(2-(methylthio)benzyl)phenyl)-N-ethyl-N-methylformimidamide], for which the pest or weed control at 500 ppm with Alternaria solani [4], in the assay on Botrytis cinera and with Fusarium culmorum [5] was 70 to 100% each time. Moreover, the inhibition of growth at 300 ppm in the assay with Septoria lycopersici is over 70%; in the assay with Rhizoctonia solani it was over 80%; in the assay with Colletotrichum capsici it was over 80%; with Pyricularia oryzae [1] it was over 75%; in the assay with Botrytis cinerea, over 80%; in the assay with Fusarium culmorum [6], 75%. In addition, the inhibition of growth at 300 ppm in the assay on Alternaria solani [3] was over 75%.
Turning to `CCN(C)C=Nc1cc(C)c(Cc2ccc(C)cc2)cc1Cl` [Compound 44, N′-(2-chloro-5-methyl-4-(4-methylbenzyl)phenyl)-N-ethyl-N-methylformimidamide], the inhibition of growth at 300 ppm in the assay on Septoria lycopersici is over 70%; in the assay with Rhizoctonia solani, over 80%; with Colletotrichum capsici, over 80%; with Pyricularia oryzae [1], over 75%; with Botrytis cinerea it was over 80%; in the assay on Fusarium culmorum [6], 75%. Besides, the inhibition of growth at 300 ppm in the assay on Alternaria solani [3] was over 75%. For the same compound, the pest or weed control at 500 ppm in the assay with Pyricularia oryzae [2] was 70 to 100%.
